The values below come from ChEMBL document CHEMBL1201862, “PubChem BioAssay data set” (2004).

Test systems include NCI-H460; 786-0; IGROV-1; SW-620; SNB-78; HOP-92; NCI-H23; SK-MEL-5; TK-10; A498; OVCAR-3; Malme-3M; SK-OV-3; M14; NCI-H522; COLO 205; HCT-15; SNB-75.
What all share (experiment): inhibition of tumour cell growth, NCI panel, 48 h

Structures are written as SMILES.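 Method: 48-hour compound exposure of cells in 96-well plates, five concentrations, linear interpolation of endpoints. Abbreviation: GI50, concentration required for 50% inhibition of growth.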 Activity calls are given as the source filed them. Rule as the data show it: active = GI50 up to about 1.1 µM and inactive = higher. Some results are limits rather than exact numbers.

With `CC(=O)NC1=C(C)C(=O)c2c(nc3n2CCC3O)C1=O` (stereo not given), the GI50 is > 87.7 µM (inactive) in the experiment with NCI-H460; 43.4 µM (inactive) in the experiment on 786-0; > 54.2 µM (inactive) with IGROV-1; 44.4 µM (inactive) in the experiment with SW-620; 31.3 µM (inactive) in the experiment with SNB-78; 18.6 µM (inactive) in the experiment on HOP-92. For the same molecule, the GI50 with NCI-H23 was 35.4 µM (inactive); in the experiment on SK-MEL-5, 51.9 µM (inactive); with TK-10, > 100 µM (inactive); in the experiment on A498 it was > 100 µM (inactive); in the experiment with OVCAR-3, 10.8 µM (inactive); in the experiment on Malme-3M it was 19.1 µM (inactive). The GI50 was > 61.7 µM (inactive) with SK-OV-3; > 100 µM (inactive) in the experiment with M14; 23.7 µM (inactive) with NCI-H522; > 100 µM (inactive) in the experiment on COLO 205; more than 100 µM with HCT-15; > 100 µM (inactive) in the experiment on SNB-75.

As to `Clc1ccc(C[P+]2(c3ccccc3)CCCCC2)cc1.[O-][Cl+3]([O-])([O-])[O-]`, the GI50 is > 100 µM (inactive) in the experiment on NCI-H460; > 100 µM (inactive) in the experiment on 786-0; > 100 µM (inactive) in the experiment with IGROV-1; 80 µM (inactive) in the experiment on SW-620; 52.4 µM (inactive) in the experiment with SNB-78; 85.5 µM (inactive) in the experiment on NCI-H23. The GI50 in the experiment with SK-MEL-5 is 20.3 µM (inactive); in the experiment on TK-10, 77.8 µM (inactive); with A498, > 100 µM (inactive); in the experiment on OVCAR-3, 44.7 µM (inactive); in the experiment on Malme-3M it was 58.5 µM (inactive); in the experiment with SK-OV-3 it was > 100 µM (inactive). Further, the GI50 in the experiment on M14 is 53.8 µM (inactive); in the experiment with NCI-H522, 28.8 µM (inactive); in the experiment with COLO 205 it was 17.9 µM (inactive); in the experiment on HCT-15, more than 100 µM; with SNB-75, 37.1 µM (inactive).

On to `O=C1N(c2ccccc2)C2(O)C(=O)c3ccccc3C2(O)N1c1ccccc1` (stereo not given), for which the GI50 in the experiment on NCI-H460, with 786-0, in the experiment on IGROV-1, in the experiment on SW-620, in the experiment with SNB-78 and in the experiment with NCI-H23 was > 100 µM (inactive) throughout. In addition, the GI50 in the experiment with SK-MEL-5, in the experiment with TK-10, in the experiment on A498, in the experiment with OVCAR-3, in the experiment on Malme-3M and in the experiment on SK-OV-3 was > 100 µM (inactive) each time. The GI50 is > 100 µM (inactive) in the experiment on M14; > 100 µM (inactive) in the experiment on NCI-H522; > 100 µM (inactive) in the experiment on COLO 205; more than 100 µM in the experiment on HCT-15; > 100 µM (inactive) with SNB-75.

For the molecule `CC1=C(C(=O)Nc2cc(=O)n(C)c(=O)n2C)C(c2ccc([N+](=O)[O-])cc2)C(C(=O)Nc2cc(=O)n(C)c(=O)n2C)=C(C)N1`, the GI50 in the experiment with NCI-H460 was > 100 µM (inactive); in the experiment on 786-0, 84.9 µM (inactive); with IGROV-1, > 100 µM (inactive); with SW-620, > 100 µM (inactive); in the experiment with SNB-78 it was > 100 µM (inactive); with HOP-92 it was 26.7 µM (inactive). In addition, the GI50 in the experiment with NCI-H23 was > 100 µM (inactive); with TK-10, > 100 µM (inactive); in the experiment on A498, > 100 µM (inactive); in the experiment on OVCAR-3, > 100 µM (inactive); with Malme-3M, > 100 µM (inactive); in the experiment on SK-OV-3, 32.3 µM (inactive). The GI50 was > 100 µM (inactive) in the experiment on M14; 37.1 µM (inactive) in the experiment on NCI-H522; > 100 µM (inactive) in the experiment on COLO 205; more than 100 µM in the experiment on HCT-15; 42 µM (inactive) in the experiment on SNB-75.

Turning to `CCc1ccc(Cc2ccc(CC)c(NC(=O)C(=O)C3NC(=S)NC3=O)c2CC)c(CC)c1NC(=O)C(=O)C1NC(=S)NC1=O` (stereo not given), the GI50 with NCI-H460 is > 100 µM (inactive); with 786-0 it was > 100 µM (inactive); with IGROV-1, > 100 µM (inactive); in the experiment with SW-620, > 100 µM (inactive); with SNB-78, > 100 µM (inactive); in the experiment with HOP-92, 38 µM (inactive). For the same molecule, the GI50 with NCI-H23, in the experiment on SK-MEL-5, in the experiment on TK-10, with A498, in the experiment with OVCAR-3 and in the experiment on Malme-3M was > 100 µM (inactive) throughout. Also, the GI50 is > 100 µM (inactive) with SK-OV-3; > 100 µM (inactive) in the experiment on M14; > 100 µM (inactive) in the experiment on NCI-H522; > 100 µM (inactive) in the experiment with COLO 205; more than 100 µM with HCT-15; 35.2 µM (inactive) in the experiment with SNB-75.

Consider `Cc1cc(S(=O)(=O)O)c(NC(=O)C(=O)C2C=CCS2(=O)=O)cc1Cl` (stereo not given), for which the GI50 with NCI-H460, in the experiment with 786-0, in the experiment with IGROV-1, in the experiment with SW-620, in the experiment with SNB-78 and in the experiment with HOP-92 was > 100 µM (inactive) each time. Further, the GI50 with NCI-H23, with SK-MEL-5, in the experiment with TK-10, in the experiment on A498, with OVCAR-3 and with Malme-3M was > 100 µM (inactive) each time. Also, the GI50 was > 100 µM (inactive) in the experiment on SK-OV-3; > 100 µM (inactive) in the experiment with M14; > 100 µM (inactive) in the experiment on NCI-H522; > 100 µM (inactive) with COLO 205; more than 100 µM with HCT-15; > 100 µM (inactive) with SNB-75.

In the case of `Nc1ccccc1SC(/C=C/NNC1=NN=C(c2ccccc2)C(c2ccccc2)N1)c1ccccc1` (stereo not given), the GI50 in the experiment on NCI-H460 is 18.5 µM (inactive); in the experiment with 786-0, 12.2 µM (inactive); in the experiment with IGROV-1 it was 15.4 µM (inactive); in the experiment on SW-620, 11.7 µM (inactive); in the experiment with SNB-78 it was 18 µM (inactive); with HOP-92, 8.57 µM (inactive). The GI50 was 5.85 µM (inactive) in the experiment on NCI-H23; 13.4 µM (inactive) in the experiment with SK-MEL-5; 19 µM (inactive) with TK-10; 20.4 µM (inactive) in the experiment on A498; 13 µM (inactive) in the experiment with OVCAR-3; 15.9 µM (inactive) in the experiment with Malme-3M. Besides, the GI50 in the experiment with SK-OV-3 was 29.6 µM (inactive); in the experiment with M14, 12.4 µM (inactive); in the experiment on NCI-H522 it was 3.85 µM (inactive); in the experiment on COLO 205, 15.6 µM (inactive); in the experiment on HCT-15, 11.5 µM; with SNB-75, 4.72 µM (inactive).

For `CCCc1c[nH]c(-c2ccc(-c3cc(CCC)c(C=O)[nH]3)s2)c1`, the GI50 is 4.55 µM (inactive) in the experiment with NCI-H460; 14.6 µM (inactive) in the experiment with 786-0; 30.4 µM (inactive) in the experiment on IGROV-1; 17.4 µM (inactive) in the experiment on SW-620; 20.1 µM (inactive) in the experiment on SNB-78; 26.5 µM (inactive) in the experiment on NCI-H23. Also, the GI50 in the experiment with SK-MEL-5 was 16.9 µM (inactive); with TK-10 it was 15.3 µM (inactive); with A498, 7.82 µM (inactive); in the experiment with OVCAR-3, 17 µM (inactive); with Malme-3M, 15.2 µM (inactive); with SK-OV-3, 18.5 µM (inactive). Moreover, the GI50 with M14 is 12.1 µM (inactive); in the experiment on NCI-H522, 16 µM (inactive); in the experiment on HCT-15, 14.6 µM; in the experiment with SNB-75, 19.8 µM (inactive).

Turning to `CC(=O)CC(=O)Nc1ccccc1C(F)(F)F`, the GI50 with NCI-H460, in the experiment on 786-0, with IGROV-1, in the experiment with SW-620, with SNB-78 and with HOP-92 was > 100 µM (inactive) in each case. Further, the GI50 with NCI-H23, in the experiment with SK-MEL-5, with TK-10, in the experiment with A498, in the experiment on Malme-3M and in the experiment on SK-OV-3 was > 100 µM (inactive) throughout. For the same molecule, the GI50 is > 100 µM (inactive) with M14; > 100 µM (inactive) in the experiment on NCI-H522; > 100 µM (inactive) in the experiment with COLO 205; more than 100 µM in the experiment with HCT-15; > 100 µM (inactive) in the experiment with SNB-75.

As to `O=C1c2ccccc2S[C@@H](O)[C@@H]2CCCN12`, the GI50 with NCI-H460 was > 100 µM (inactive); in the experiment with 786-0, > 100 µM (inactive); with IGROV-1, 21.9 µM (inactive); in the experiment on SW-620, > 100 µM (inactive); in the experiment on SNB-78 it was > 100 µM (inactive); in the experiment with HOP-92, > 100 µM (inactive). The GI50 is > 100 µM (inactive) in the experiment with NCI-H23; > 100 µM (inactive) in the experiment with SK-MEL-5; > 100 µM (inactive) in the experiment on TK-10; > 100 µM (inactive) in the experiment on OVCAR-3; > 100 µM (inactive) in the experiment with Malme-3M; 35.2 µM (inactive) with SK-OV-3. The GI50 in the experiment with M14 is > 100 µM (inactive); in the experiment with NCI-H522, > 100 µM (inactive); in the experiment on COLO 205, > 100 µM (inactive); in the experiment with HCT-15, more than 100 µM.

As to `CCn1cc(C(=O)O)c(=O)c2cc(F)c(N3CCNCC3)nc21` [ENOXACIN], the GI50 with NCI-H460 is > 100 µM (inactive); in the experiment with 786-0, > 100 µM (inactive); with IGROV-1, > 100 µM (inactive); in the experiment with SW-620 it was > 100 µM (inactive); in the experiment with SNB-78, > 100 µM (inactive); with HOP-92, 32.8 µM (inactive). In addition, the GI50 is 31.1 µM (inactive) with NCI-H23; 87.5 µM (inactive) in the experiment with SK-MEL-5; > 100 µM (inactive) with TK-10; > 100 µM (inactive) in the experiment with A498; > 100 µM (inactive) in the experiment with OVCAR-3; 74.1 µM (inactive) with Malme-3M. Moreover, the GI50 with SK-OV-3 was > 100 µM (inactive); in the experiment on M14 it was > 100 µM (inactive); with NCI-H522 it was 24.4 µM (inactive); in the experiment with COLO 205, > 100 µM (inactive); with HCT-15, more than 100 µM; in the experiment with SNB-75, > 100 µM (inactive).
